Laboratory results: patent US5061730A, “Carboxylic acid derivatives” (Fujisawa Pharmaceutical Co., Ltd., priority 1987, dated 1991)
One block for each compound: values may come before it.

Columns and labels:
[1] = target: T1, DHP-I (renal dipeptidase) (Oryctolagus cuniculus, UniProt P31429); test: Inhibition of DHP-I activity, rabbit DHP-I; format: biochemical; details: glycyldehydrophenylalanine substrate
T1 construct: Fresh kidney cortex was cut into pieces and homogenized in a Waring blender; from tissue; host or cells: kidney cortex (rabbit), n-butanol extraction, ammonium sulfate fraction 50-75%
T1 sequence (P31429 17-410): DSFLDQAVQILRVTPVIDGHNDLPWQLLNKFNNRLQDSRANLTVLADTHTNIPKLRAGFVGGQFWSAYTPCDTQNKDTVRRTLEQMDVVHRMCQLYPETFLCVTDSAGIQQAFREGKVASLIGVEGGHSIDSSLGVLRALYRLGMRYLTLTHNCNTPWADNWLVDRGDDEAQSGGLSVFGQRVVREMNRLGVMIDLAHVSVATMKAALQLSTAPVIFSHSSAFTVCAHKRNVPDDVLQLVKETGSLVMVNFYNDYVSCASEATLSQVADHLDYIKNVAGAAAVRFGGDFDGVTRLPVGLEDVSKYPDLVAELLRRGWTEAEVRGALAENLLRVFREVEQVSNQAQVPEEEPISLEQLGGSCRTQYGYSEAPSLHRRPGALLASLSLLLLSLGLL
Description: (§1) DHP-I (renal dipeptidase) were partially purified from several species of animals by B. J. Cambell (Methods in Enzymology, (1970) Vol. 19,722). Fresh kidney cortex was cut into pieces and homogenized in a Waring blender with an equal volume of 1/15M phosphate buffer (pH 8.0). The homogenate was filtrated on gauze to remove cellular debris. n-Butanol chilled to 0° C., was added to a concentration of 20% by volume with rapid stirring. The suspension was stirred with a magnetic stirrer for overnight at 4° C. to dissolve DHP-I. The resultant emulsion was then dialyzed against several changes of distilled water. To the dialyzate was added solid ammonium sulfate to 50% saturation at 0° C. The precipitate formed was collected by centrifugation at 4500 g for 1 hour and discarded. Solid ammonium sulfate was then added to the supernatant to 75% saturation, the suspension was centrifuged at 10,000 g for 1 hour. The sediment was dissolved in a small volume of distilled water and dialyzed against distilled water. […]
(§2) Activity of DHP-I was measured by mean of using the unsaturated dipeptide, glycyldehydrophenylalanine as substrate. […] Inhibitory effect of the test compound on DHP-I activity was measured. Inhibition percent, I(%), was calculated as followed, I(%)=(E-T)/Ex100, where E was DHP-I activity without test compound (Control), T was DHP-I activity with test compound.

Staphylococcus aureus = test: Antimicrobial activity, paper disk diffusion method; format: cell-based; details: at 1 mg/ml
Description: (§3) Antimicrobial activity of the test compounds No.1 and No.2. was measured by paper disk diffusion method in a conventional manner.

Escherichia coli = test: as above; format: cell-based; details: at 1 mg/ml
Description: as §3

[2] = Urinary recovery of carbapenem antibiotics combined with DHP-I inhibitor; format: in vivo, ICR mice; details: for dose excreted: mouse, urine, iv, 1 mg/kg, antibiotic 1 mg/kg i.v., ICR mice
Description: The effect of the test compound No.1 on urinary recovery of carbapenem antibiotics simultaneously administrated was determined. Urinary recovery percent was calculated by measuring a quantity of antibiotics excreted in urine using bioassay, when antibiotics and DHP-I inhibitor were combined and intravenously injected to ICR mice (female, 4 weeks old, 4 animals per group).

[3] = system: carboxypeptidaseA (CPaseA); test: Effect on other metalloenzymes: carboxypeptidase A; format: biochemical; details: at 50,000 ng/ml; bovine pancreas enzyme
Description: (§4) DHP-I is a metalloenzyme with the zinc atom. To clarify the specific inhibitors activity of the test compound on DHP-I, the effect of the test compound on other metalloenzymes containing zinc, carboxypeptidaseA (CPaseA), leucineaminopeptidase (LAP), was determined.
Activity of CPaseA from bovine pancreas (Type II-DEF, made by Sigma Chemical Co.) was measured by mean of using carbobenzoxyglycyl-L-phenylalanine (made by Peptide Institute, Inc., Osaka, Japan) as substrate. Enzymatic hydrolysis was followed by observing the fall in optical density at 224 nm.

[4] = target: T2, DHP-I (renal dipeptidase) (Sus scrofa, UniProt P22412); test: Inhibition of DHP-I activity, porcine DHP-I; format: biochemical; details: glycyldehydrophenylalanine substrate
T2 construct: Fresh kidney cortex was cut into pieces and homogenized in a Waring blender; from tissue; host or cells: kidney cortex (pig), n-butanol extraction, ammonium sulfate fraction 50-75%
T2 sequence (P22412 17-409): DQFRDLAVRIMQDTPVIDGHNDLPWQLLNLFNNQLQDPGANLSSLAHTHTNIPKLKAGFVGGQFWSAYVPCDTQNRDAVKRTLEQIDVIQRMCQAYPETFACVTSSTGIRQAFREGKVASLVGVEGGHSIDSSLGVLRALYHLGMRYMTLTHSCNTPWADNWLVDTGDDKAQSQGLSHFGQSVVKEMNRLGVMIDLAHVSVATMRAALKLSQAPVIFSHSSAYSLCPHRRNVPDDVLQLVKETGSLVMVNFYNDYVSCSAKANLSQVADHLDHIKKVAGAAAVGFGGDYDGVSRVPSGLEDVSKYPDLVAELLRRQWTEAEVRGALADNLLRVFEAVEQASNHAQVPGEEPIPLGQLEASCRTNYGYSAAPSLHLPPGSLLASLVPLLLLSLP
Description: as §1, §2

[5] = system: leucineaminopeptidase (LAP); test: Effect on other metalloenzymes: leucineaminopeptidase; format: biochemical; details: at 50,000 ng/ml; porcine kidney microsomes enzyme
Description: as §4
Activity of LAP from porcine kidney microsomes (Type IV-S, made by Sigma Chemical Co.) was measured by . mean of using L-leucine-p-nitroanilide (made by Peptide Institute, Inc.) as substrate. Enzymatic hydrolysis was followed by observing the increase in optical density at 405 nm.

ICR mice = test: Acute toxicity, single intravenous injection; format: in vivo; details: 1 g/kg single intravenous, female, 4 weeks old
Description: The acute toxicity of the test compound No.1 was determined to ICR mice (female, 4 weeks old) by a single intravenous injection.

Staphylococcus aureus 47 = test: Protective effect of carbapenem antibiotic combined with DHP-I inhibitor on mice infection; format: in vivo; details: Test compound No. 4 alone 10 mg/kg s.c., 1 hour after challenge; ICR mice
Description: The combined effect of DHP-I inhibitor of this invention with the carbapenem antibiotic, on mice infection was determined. ICR mice (female, 4 weeks old, 5 animals per group) were intraperitoneally injected with 4×10^8 Staphylococcus aureus 47 suspended in 5% mucin. Combined therapies were administrated subcutaneously 1 hour after challenge.

Solubility = format: physicochemical; details: disodium salt
[6] = literature; cited from earlier work
[7] = with Test compound No. 1, 0.5 mg/kg
[8] = with Test compound No. 1, 1 mg/kg
[9] = with Test compound No. 1, 2 mg/kg

Compound: CC(CC(=O)O)C(O)(C(=O)O)C(=O)NO (centres unmarked) [Test compound No. 1]
IC50 [1]: 0.0497 µM
Antimicrobial activity (Staphylococcus aureus): no antimicrobial activity
Antimicrobial activity (Escherichia coli): no antimicrobial activity
Effect on urinary recovery of the carbapenem antibiotics ([2]; effect of inhibitor on test compound No. 3 and 4 (1 mg/kg), in words): significantly increased urinary recovery
Inhibitory effect on CPaseA [3]: no inhibitory effect
IC50 [4]: 0.00497 µM
Inhibitory effect on LAP [5]: no inhibitory effect
Acute toxicity, toxic symptom (ICR mice): No toxic symptom was observed

Compound: O=C(O)CCC(O)(C(=O)O)C(=O)NO (centres unmarked) [Test compound No. 2]
IC50 [1]: 2.41 µM
Antimicrobial activity (Staphylococcus aureus): no antimicrobial activity
Antimicrobial activity (Escherichia coli): no antimicrobial activity
Inhibitory effect on CPaseA [3]: no inhibitory effect
IC50 [4]: 0.531 µM
Inhibitory effect on LAP [5]: no inhibitory effect

dose excreted ([2]; inhibitor: None): 44.1 ± 0.6%
dose excreted [2, 7]: 66.1 ± 3%
dose excreted [2, 8]: 63.8 ± 7.3%
dose excreted [2, 9]: 65.4 ± 9.5%
Compound: C[C@@H](O)[C@H]1C(=O)N2C(C(=O)O)=C(SCCNC=N)CC12 (some centres unmarked) [Test compound No. 3]

dose excreted ([2]; inhibitor: None): 29.3 ± 2.8%
dose excreted [2, 7]: 51.4 ± 3.9%
dose excreted [2, 8]: 57.8 ± 1.3%
dose excreted [2, 9]: 71.9 ± 9.5%
Compound: C[C@@H](O)[C@H]1C(=O)N2C(C(=O)O)=C(S[C@@H]3CN[C@H](COC(N)=O)C3)CC12 (some centres unmarked) [Test compound No. 4]
Survived/Treated (Test mice) (Staphylococcus aureus 47): 0/5

Compound: CC(CC(=O)O)C(O)(C(=O)O)C(=O)NO (centres unmarked) [WS-1358A, 2-hydroxy-2-(hydroxycarbamoyl)-3-methylglutaric acid]
Solubility in acetone (Solubility): Insoluble
Solubility in chloroform (Solubility): Insoluble
Solubility in ethanol (Solubility): Sparingly Soluble
Solubility in ethyl acetate (Solubility): Insoluble
Solubility in hexane (Solubility): Insoluble
Solubility in methanol (Solubility): Sparingly Soluble
Solubility in water (Solubility): Soluble

Compound: O=C(O)CCC(O)(C(=O)O)C(=O)NO (centres unmarked) [WS-1358B]
Solubility in acetone (Solubility): Insoluble
Solubility in chloroform (Solubility): Insoluble
Solubility in ethanol (Solubility): Sparingly Soluble
Solubility in ethyl acetate (Solubility): Insoluble
Solubility in hexane (Solubility): Insoluble
Solubility in methanol (Solubility): Sparingly Soluble
Solubility in water (Solubility): Soluble

Compound: CC1(C)C[C@@H]1C(=O)N/C(=C\CCCCSC[C@H](N)C(=O)O)C(=O)O [cilastatin]
Urinary recoveries of the carbapenem antibiotics (e.g. imipenem) [6]: improving urinary recoveries
